{"source": "a melting point compilation (Tetko et al.; mined from patent text by program, amines drawn as free bases though some values may be those of a salt)"}
{"units": {"melting point": "°C"}}
{"molecule": "O=C(O)CCCNC(=O)[C@@H](Cc1ccccc1)C[C@H](Cc1ccccc1)C(=O)O", "note": "(relative stereo)", "melting point": "127 to 129"}
{"molecule": "N=C(NS(=O)(=O)C=Cc1ccc([N+](=O)[O-])cc1)c1ccc2ccccc2c1", "melting point": "180 to 182"}
{"molecule": "Cc1cccc(-c2[nH]c(C(C)C)nc2-c2ccc(F)c(-c3ncc[nH]3)c2)n1", "melting point": "201 to 205"}
{"molecule": "OP(O)C(NC(c1ccccc1)c1ccccc1)c1ccc2c(c1)OCO2", "note": "(centres undefined)", "melting point": "194 to 195"}
{"molecule": "O=C(O)CCCCOc1ccccc1Cl", "melting point": "71 to 72"}
{"molecule": "Cc1ccc(C(=O)Nc2ccc(CN3CCCCC3)c(C(F)(F)F)c2)cc1Br", "melting point": "151 to 153"}
{"molecule": "NCc1ccc(-c2ccccc2-c2nnn[nH]2)cc1", "melting point": "> 260"}
{"molecule": "COc1nc(C)cnc1NS(=O)(=O)c1ccccc1-c1ccc(C)cc1", "melting point": "184 to 185"}
{"molecule": "COc1ccc(CN2C(=O)C3(COc4cc5c(cc43)OCCO5)c3ccccc32)cc1OC", "note": "(centres undefined)", "melting point": "209 to 211"}
{"molecule": "CCCc1cc(=O)oc2c(C(C)=O)c(O)cc(O)c12", "melting point": "221 to 224"}
{"molecule": "CCCc1nc(C)n2c(=O)[nH]nc2c1Cc1ccc(-c2ccccc2C#N)cc1", "melting point": 196}
{"molecule": "Cc1cccc2sc(-n3nc(CCC(=O)N(C)O)cc3-c3ccsc3)nc12", "melting point": "142 to 143"}
{"molecule": "COC(=O)c1ccc(Br)c(C=O)c1", "melting point": "71 to 74"}
{"molecule": "CCCCCCCCCCCCCCC(C)(C(=O)O)C(=O)O", "melting point": "83 to 85"}
{"molecule": "COc1cc2c(cc1OC)C(C(CO)CO)=NCC2", "melting point": 129}
{"molecule": "Cc1ccc(NC(=O)NCc2cccc3c2CN(C2CCC(=O)NC2=O)C3=O)cc1C", "note": "(centres undefined)", "melting point": "> 260"}
{"molecule": "NC(=O)c1cccc(OCCCCCn2cnc3c(Cl)ncnc32)c1", "melting point": "132 to 133"}
{"molecule": "CC(=O)N1CCc2nc(N)nc(-c3ccc(Cl)cc3)c2C1", "melting point": "218 to 220"}
{"molecule": "N#Cc1ccc(-c2ccc(C(=O)O)cn2)cc1", "melting point": "> 260"}
{"molecule": "Cc1cc2c(nc1C(O)c1cccc(Cl)c1)CCCCC2", "note": "(centres undefined)", "melting point": "123 to 125"}
{"molecule": "COc1ccccc1-c1c(CC(=O)O)n(C)c2ccc(Cl)cc12", "melting point": "153 to 154"}
{"molecule": "COc1ccc(C=CC2=NNC(C)Cc3cc4c(cc32)OCO4)c(OC)c1", "note": "(centres undefined)", "melting point": "176 to 178"}
{"molecule": "Nc1nc2cc(-c3ccc(C=C4SC(=O)NC4=O)cn3)cc(C34CC5CC(CC(C5)C3)C4)c2o1", "melting point": "> 360"}
{"molecule": "COc1ccccc1-c1c(N)c2ccc(Cl)cc2[nH]c1=O", "melting point": "284 to 286"}
{"molecule": "C=C1N(CCCCCCC)C(=O)OC12CCN(Cc1ccccc1)CC2", "melting point": "47 to 48"}
{"molecule": "CCN(CC)C(=O)C(C)n1cc(C)c(-c2ccccc2)n1", "note": "(centres undefined)", "melting point": "55 to 57"}
{"molecule": "CC(=O)c1c[nH]c(-c2ccc(O)cc2)n1", "melting point": "254 to 259"}
{"molecule": "Nc1scc(CN2CCN(c3ccccc3)CC2)c1C(=O)c1ccc(Cl)cc1", "melting point": 112}
{"molecule": "CN(C)C(=O)Nc1ccc(OS(C)(=O)=O)c(Cl)c1", "melting point": "130 to 132"}
{"molecule": "COc1ccccc1CCSc1c(O)cc(-c2ccccc2)oc1=O", "melting point": "114 to 115"}
{"molecule": "CC(C)c1ccccc1Sc1c(O)cc(-c2cccc(Cl)c2)oc1=O", "melting point": "177 to 178"}
{"molecule": "CC(Cc1c[nH]c2ccccc12)(NC(=O)OC(C)(C)C(Cl)(Cl)Cl)C(=O)NCCc1ccccn1", "note": "(centres undefined)", "melting point": "130 to 133"}
{"molecule": "O=C(CCC12CCC(=O)N1C(=O)CC2)OCc1ccccc1Cl", "melting point": "126 to 128"}
{"molecule": "c1ccc(Cn2ncc3c(NCC4CCCCC4)c4ccccc4nc32)cc1", "melting point": "254 to 256"}
{"molecule": "NC(=O)c1cc(O)cc2nc(-c3ccc(O)cc3)oc12", "melting point": 325}
{"molecule": "Cc1nccn1CCCNC(=O)c1cc2ccccc2[nH]1", "melting point": "235 to 237"}
{"molecule": "CCCCOc1ccc2cc(Nc3ccc(O)cc3)ccc2c1", "melting point": "138 to 139"}
{"molecule": "CCCC(=O)c1cnc2c(OCCCN3CCCC3)cccc2c1Nc1ccccc1C", "melting point": "101 to 103"}
{"molecule": "O=C(O)COc1cccc2c1CCc1sc(OCCC(c3ccccc3)c3ccccc3)nc1-2", "melting point": "165 to 166"}
{"molecule": "O=C1CC(c2cccc3c2OCO3)=Nc2ccc(N3CCOCC3)cc21", "melting point": "350 to 352"}
{"molecule": "CCc1cc(C(=O)c2ccccc2Cl)c(-n2c(C)nnc2CNC(=O)c2cc3ccccc3n2CCC(=O)OC)s1", "melting point": "67 to 68"}
{"molecule": "C=CCNCCC(=O)O", "melting point": "194 to 195"}
{"molecule": "Ic1cccc2cc3ccccc3cc12", "melting point": "152 to 154"}
{"molecule": "Cc1nn(-c2cc(O)c(Cl)cc2Cl)c(C)c1Cl", "melting point": "172 to 174"}
{"molecule": "COC(=O)c1ccc(CN([C@@H](CO)c2ccccc2)S(=O)(=O)c2ccc(Cl)cc2)cc1", "melting point": "104 to 106"}
{"molecule": "CC(C)N(C(C)C)C(C)CN1C(=O)/C(=N/NC(N)=O)c2ccccc21", "note": "(centres undefined)", "melting point": "201 to 204"}
{"molecule": "CCOC(=O)N1C=CC(c2c(-c3ccccc3)nc3ccc(Cl)nn23)C=N1", "note": "(centres undefined)", "melting point": "126 to 131"}
{"molecule": "O=C(NCCCn1cc(Cn2ccnc2)c2ccccc21)Nc1ccccc1", "melting point": "177 to 178"}
{"molecule": "CCOC(=O)Cc1ccccc1I", "melting point": "40.5 to 41.5"}
{"molecule": "ClCCN1CCC(=C(c2ccccc2)c2ccccc2)CC1", "melting point": "85 to 86"}
{"molecule": "Nc1ccc(Oc2ccccc2)c(Cl)c1", "melting point": "31 to 33"}
{"molecule": "COc1ccc2nc3ccc(C(N)=O)cn3c(=O)c2c1", "melting point": "> 310"}
{"molecule": "O=C(O)c1cn2c3c(cc(F)cc3c1=O)CCC2C(F)(F)F", "note": "(centres undefined)", "melting point": "295 to 297"}
{"molecule": "CN(C)CCCNS(=O)(=O)c1ccc(C(C)(C)c2cc(C(C)(C)CC(C)(C)C)cc(-n3nc4ccccc4n3)c2O)cc1", "melting point": "96 to 101"}
{"molecule": "CCOCCn1cc2c(=O)[nH]c(=O)[nH]c2n1", "melting point": "> 300"}
{"molecule": "COC(=O)NCCOc1ccc(Oc2ccc(F)cc2)cc1", "melting point": "64 to 66"}
{"molecule": "COc1ccc2c(c1)CC(=O)N2C", "melting point": "93 to 94"}
{"molecule": "O=Cc1ccc(CBr)c(Cl)c1", "melting point": "64 to 66"}
{"molecule": "O=C(O)CCCCCn1c2ccccc2c(=O)c2cc(Br)ccc21", "melting point": 213}
{"molecule": "Brc1ccc(C(Br)Br)nc1", "melting point": "59 to 61"}
{"molecule": "CC1CC2C(=CCC3(C)C2CCC3(O)C(=O)CO)C2(C)C=CC(=O)C=C12", "note": "(centres undefined)", "melting point": "204 to 206"}
{"molecule": "CC(=O)NCc1ccc(CN2CCN(c3ccc(F)cc3F)CC2)cc1", "melting point": "94 to 95"}
{"molecule": "CN(C)C(=O)n1nc(-c2ccccc2)c(-c2ccccc2)c(C#N)c1=O", "melting point": 231}
{"molecule": "COc1cc2c(c(C(N)=O)c1OC)CCNCC2c1ccccc1", "note": "(centres undefined)", "melting point": "178 to 180"}
{"molecule": "COC(c1ccc(NC(=O)c2c(C)nn(C)c2C)cc1CC(C)C)(C(F)(F)F)C(F)(F)F", "melting point": "189 to 190"}
{"molecule": "O[C@@H]1CNC[C@H]1Sc1ccccc1", "note": "(relative stereo)", "melting point": "140 to 141"}
{"molecule": "O=c1c2c(-c3ccc(O)cc3)n[nH]c2c2cccnc2n1-c1ccccc1", "melting point": "> 300"}
{"molecule": "CSc1sc(C(=O)O)c2c1-c1nc(C)sc1CC2", "melting point": "273 to 274"}
{"molecule": "CCN(C)c1cccc(Cl)c1COc1cccn2c(Br)c(C)nc12", "melting point": "124 to 126"}
{"molecule": "C/C=C/c1ccc2c(NCc3ccc(NC(=O)c4ccc(F)cc4)cc3)nc(N(C)C)nc2c1", "melting point": 246}
{"molecule": "NS(=O)(=O)c1cccc(-c2cc(-c3nc(-c4ccc(F)cc4)cc(C(F)(F)F)n3)ccn2)c1", "melting point": 240}
{"molecule": "CN1CCN(c2cccc3c2C[C@H](NC(=O)c2ccc(Cc4ccccc4)cc2)CC3)CC1", "melting point": "191 to 192"}
{"molecule": "CCOC(=O)CN1C(=O)C(NC(=O)OCc2ccccc2)N=C(c2ccccc2)c2ccccc21", "note": "(centres undefined)", "melting point": "65 to 66"}
{"molecule": "O=C(c1ccc(Cl)cc1)c1ccc2c(c1)C(=O)N(Cc1cccnc1)C2=O", "melting point": "132 to 134"}
{"molecule": "CCOC(=O)c1ccccc1Sc1ccn(C(=O)N(CC)CC)n1", "melting point": "65 to 67"}
{"molecule": "CC[C@@]1(O)C(=O)OCc2c1cc1n(c2=O)Cc2c-1nc1ccc(C)c3c1c2C(NC(C)=O)CN3", "note": "(some centres undefined)", "melting point": "225 to 235"}
{"molecule": "c1ccn(Nc2ccncc2)c1", "melting point": 150}
{"molecule": "C=CCNC(=O)N1CC(Oc2ccc(C(F)(F)F)cc2Cl)C1", "melting point": "102 to 104"}
{"molecule": "CC(O)c1ccc2c3c1ccn3C(=O)CNC2", "note": "(centres undefined)", "melting point": "295 to 297"}
{"molecule": "CN1Cc2c(-c3nc(C4CC4)no3)ncn2-c2ccccc2C1=O", "melting point": "202 to 203"}
{"molecule": "CN1CCC(c2c[nH]c3ccc(Cn4cncn4)cc23)C1", "note": "(centres undefined)", "melting point": "59 to 61"}
{"molecule": "CCOC(=O)C(=O)Nc1nc(CN2CCN(C(c3ccccc3)c3ccccc3)CC2)c(Cl)s1", "melting point": "154 to 156"}
{"molecule": "Nc1ccc(N2CCCC2)nn1", "melting point": "209 to 211"}
{"molecule": "C[Si](C)(C)CCOC(=O)c1cccc2nnsc12", "melting point": "37 to 39"}
{"molecule": "NC(=O)CNC(=O)c1ccnc(-c2ccc3c(c2)C(c2ccc(Cl)cc2Cl)CC3)c1", "note": "(centres undefined)", "melting point": "168 to 170"}
{"molecule": "O=C1Cc2cc(OCc3ccc4ccccc4n3)ccc2N1c1ccccc1", "melting point": "148 to 149"}
{"molecule": "NC1=NC(c2ccccc2)=NCC1(N)N=O", "note": "(centres undefined)", "melting point": "243 to 244"}
{"molecule": "Cc1c(-c2ccccc2)c(N2CC[C@H](N(C)C)C2)c2oc(-c3cnn(C)c3)nc2c1C#N", "melting point": "214 to 222"}
{"molecule": "CC1(C)C2CC3CCC(=O)OC3C1C2", "note": "(centres undefined)", "melting point": "57 to 60"}
{"molecule": "COc1ccccc1CC(=O)N1C[C@@H]2SCCC(c3ccccc3)(c3ccccc3)[C@@H]2C1", "note": "(racemic)", "melting point": 172}
{"molecule": "OCc1cccc(-c2cccc(-c3cn([C@H]4CN5CCC4CC5)nn3)c2)c1", "melting point": 201}
{"molecule": "N#Cc1ccccc1-c1ccc(CCl)cc1", "melting point": "125 to 126"}
{"molecule": "COC(=O)[C@H](Cc1ccc(NC=O)cc1)NC(C)=O", "melting point": 126}
{"molecule": "COCOc1cccc2c(=O)[nH]c(CCCN(C)C)cc12", "melting point": "110 to 112"}
{"molecule": "CCNC1(c2ccccc2Cl)C(=O)N(Cc2ccc(C(=O)NC(C)(CO)CO)cc2)c2ccc(Cl)cc21", "note": "(centres undefined)", "melting point": "138 to 141"}
{"molecule": "O=c1cc2c(n[nH]1)-c1ccccc1C2", "melting point": 295}
{"molecule": "CCOc1ccc2nc(Sc3ccc([N+](=O)[O-])c(N)c3)sc2c1", "melting point": "126 to 129"}
{"molecule": "O=C(c1ccc(Cl)cc1)c1c(N2C(=O)c3ccccc3C2=O)sc(Br)c1CBr", "melting point": "173 to 175"}
{"molecule": "COc1ccc(Oc2cnc(N)nc2N)c(C(C)C)c1", "melting point": "170 to 171"}
{"molecule": "COC(=O)c1ccc(-c2cccc(C=O)c2)cc1", "melting point": "95 to 97"}
{"molecule": "C=CCN(CC=C)Cc1noc(-c2ncn3c2CN(C)C(=O)c2c(Cl)cccc2-3)n1", "melting point": "125 to 130"}
{"molecule": "COc1ccc2c(c1)Oc1ccccc1C2", "melting point": "72 to 74"}
{"molecule": "O=C(O)CCCCCCCCC1CO1", "note": "(centres undefined)", "melting point": 48}
{"molecule": "CC1(C)Oc2ccc(OCCCC(F)(F)F)cc2[C@H](NS(C)(=O)=O)[C@H]1O", "melting point": 186}
